Square brackets hold non-standard residues; d marks the D form. Ends that are not written are not given here.
Key:
[1] = test system: neonatal cardiomyocytes; assay: Mitosox flow cytometry of mitochondrial ROS in neonatal cardiomyocytes stimulated with Ang II; assay type: cell-based, mouse; conditions: SS-31 1 nM or NAC 0.5 mM together with Ang II 1 μM for 3 hours
Protocol: Neonatal mouse cardiomyocyte culture and flow cytometry. Ventricles from mouse neonates younger than 72 hours were dissected, minced, and enzymatically digested with Blendzyme 4 (45 μg/ml, Roche). After enzymatic digestion, cardiomyocytes were enriched using differential pre-plating for 2 hours, then seeded on fibronectin-coated culture dishes for 24 hours in DMEM (Gibco), with 20% Fetal Bovine Serum (Sigma) and 25 μM Arabinosylcytosine (Sigma). Cardiomyocytes were stimulated with Angiotensin II (1 μM) for 3 hours in serum-free DMEM containing 0.5% insulin transferrin-selenium (Sigma), 2 mM glutamine, and 1 mg/ml of BSA. Cardiomyocytes were simultaneously treated with either of the following: SS-31 (1 nM), N-acetyl cysteine (NAC: 0.5 mM), or PBS control. To measure mitochondrial superoxide concentration, Mitosox (5 μM) was incubated for 30 min at 37° C. to load cardiomyocytes, followed by 2 washes, with Hanks Balanced Salt Solution. Samples were analyzed using excitation/emission of 488/625 nm by flow cytometry. Flow data was analyzed using FCS Express (De Novo Software, Los Angeles, CA), and presented as histogram distributions of Mitosox fluorescence intensity.

[2] = test system: Gαq overexpressing mice; assay: Gαq overexpression-induced heart failure: echocardiography, organ weights, fibrosis, qPCR, protein carbonyls; assay type: in vivo, mouse
Protocol: (§1) Mouse experiments, drug delivery, echocardiography and blood pressure measurement. All animal experiments were approved by the University of Washington Institutional Animal Care and Use Committee. C57BL6 mice were housed in a barrier specific pathogen-free facility. Six to ten mice were included in each experimental group (Saline, Ang II, Ang II+SS-31, WT, Gαq, Gαq+SS-31). A pressor dose of Ang II (1.1 mg/kg/d) was continuously administered for 4 weeks using subcutaneous Alzet 1004 osmotic minipumps, with or without addition of SS-31 (3 mg/kg/d). Echocardiography was performed at baseline and after 4 weeks of pump implantation using a Siemens Acuson CV-70 equipped with a 13 MHz probe. Under 0.5% isoflurane to reduce agitation, standard M-mode, conventional and Tissue Doppler images were taken, and functional calculations were performed according to American Society of Echocardiography guidelines. MP1 was calculated as the ratio of the sum of isovolemic contraction and relaxation time to LV ejection time. An increase in MPI is an indication that a greater fraction of systole is spent to cope with the pressure changes during the isovolemic phases. As a reference for SS-31 peptide effect in Ang II treated mice, a genetic mouse model of Rosa-26 inducible-mCAT was included, in which mitochondrial catalase was overexpressed two weeks before Ang II treatment.
Quantitative Pathology. Ventricular tissues were cut into transverse slices, and subsequently embedded with paraffin, sectioned, and subjected to Masson Trichrome staining. Quantitative analysis of fibrosis was performed by measuring the percentage of blue-staining fibrotic tissue relative to the total cross-sectional area of the ventricles.
Measurement of mitochondrial protein carbonyl groups. For mitochondrial protein extraction, ventricular tissues were homogenized in mitochondrial isolation buffer (1 mM EGTA, 10 mM HEPES, 250 mM sucrose, 10 mM Tris-HCl, pH 7.4). The lysates were centrifuged for 7 min at 800 g in 4° C. The supernatants were then centrifuged for 30 min at 4000 g in 4° C. The crude mitochondria pellets were resuspended in small volume of mitochondrial isolation buffer, sonicated on ice to disrupt the membrane, and treated with 1% streptomycin sulfate to precipitate mitochondrial nucleic acids. The OxiSelect™ Protein Carbonyl ELISA Kit (Cell Biolabs) was used to analyze 1 μg of protein sample per assay. The ELISA was performed according to the instruction manual, with slight modification. Briefly, protein samples were reacted with dinitrophenylhydrazine (DNPH) and probed with anti-DNPH antibody, followed by HRP conjugated secondary antibody. The anti-DNPH antibody and HRP conjugated secondary antibody concentrations were 1:2500 and 1:4000, respectively.
(§2) Quantitative PCR. Gene expression was quantified by quantitative real time PCR using an Applied Biosystems 7900 themocycler with Taqman Gene Expression Assays on Demand, which included: PGC1-α (Mm00731216), TFAM (Mm00447485), NRF-1 (Mm00447996), NRF-2 (Mm00487471), Collagen 1a2 (Mm00483937), and ANP (Mm01255747). Expression assays were normalized to 18S RNA.

[3] = test system: C57BL6 mice; assay: Quantitative pathology of ventricular fibrosis (Masson Trichrome) after 4 weeks of Ang II; assay type: in vivo, mouse; conditions: SS-31 3 mg/kg/d with Ang II, 4 weeks
Protocol: as §1, with “As a reference for SS-31 peptide effect in Ang II treated mice, a genetic mouse model of Rosa-26 inducible-mCAT was included, in which mitochondrial catalase was overexpressed two weeks before Ang II treatment.” left out
Quantitative Pathology. […] Quantitative analysis of fibrosis was performed by measuring the percentage of blue-staining fibrotic tissue relative to the total cross-sectional area of the ventricles.

[4] = test system: ANP, Collagen 1a2, PGC1-α, TFAM, NRF-1, NRF-2; assay: Quantitative PCR of cardiac gene expression after 4 weeks of Ang II; assay type: in vivo, mouse
Protocol: as §1, §2

[5] = test system: NADPH oxidase; assay: NADPH oxidase activity in ventricular protein extract after 4 weeks of Ang II; assay type: in vivo, mouse; conditions: 4 weeks Ang II (vs. saline) or Ang II + SS-31 (vs. Ang II)
Protocol: as §1, with “An increase in MPI is an indication that a greater fraction of systole is spent to cope with the pressure changes during the isovolemic phases. As a reference for SS-31 peptide effect in Ang II treated mice, a genetic mouse model of Rosa-26 inducible-mCAT was included, in which mitochondrial catalase was overexpressed two weeks before Ang II treatment.” left out
NADPH Oxidase activity. […] In brief, […] of ventricular protein extract was incubated with dihydroethidium (DHE, 10 μM), sperm DNA (1.25 μg/ml), and NADPH (50 μM) in PBS/DTPA (containing 100 μM DTPA), The assay was incubated at 37° C. in the dark for 30 min and the fluorescence was detected using excitation/emission of 490/580 nm.

[6] = test system: mitochondrial protein carbonyl groups; assay: Cardiac mitochondrial protein carbonyl ELISA after 4 weeks of Ang II; assay type: in vivo, mouse; conditions: 4 weeks Ang II (vs. saline) or Ang II + SS-31 (vs. Ang II)
Protocol: as §1, with “treatment. […]” for “treatment.”

[7] = target: mu-opioid receptor (Homo sapiens, UniProt P35372); assay: mu-opioid receptor agonist activity (stated, no method); assay type: biochemical; conditions: stated in the description, no test described
mu-opioid receptor, sequence (P35372 whole entry, species assumed): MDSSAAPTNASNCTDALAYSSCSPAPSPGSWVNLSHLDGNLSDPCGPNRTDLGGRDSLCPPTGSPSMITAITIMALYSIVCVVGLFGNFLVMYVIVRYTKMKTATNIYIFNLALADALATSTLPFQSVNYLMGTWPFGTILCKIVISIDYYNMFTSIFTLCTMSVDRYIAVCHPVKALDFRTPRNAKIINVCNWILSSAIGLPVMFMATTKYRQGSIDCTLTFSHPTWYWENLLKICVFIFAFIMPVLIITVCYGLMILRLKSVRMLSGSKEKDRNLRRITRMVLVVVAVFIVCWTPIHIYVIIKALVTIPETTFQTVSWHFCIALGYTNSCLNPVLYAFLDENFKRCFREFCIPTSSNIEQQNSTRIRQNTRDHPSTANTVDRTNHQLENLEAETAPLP

[8] = test system: C57BL6 mice; assay: Ang II-induced cardiomyopathy: echocardiography and heart weight after 4 weeks; assay type: in vivo, mouse
Protocol: as §1

[9] = test system: C57BL6 mice; assay: Blood pressure by intravascular telemetry after pressor dose of Ang II; assay type: in vivo, mouse; conditions: SS-31 3 mg/kg/d simultaneously with Ang II 1.1 mg/kg/d
Protocol: as §1
Blood pressure was measured in a separate group of mice by telemetry using an intravascular catheter PA-C10 (DSI, MN), in which measurement was performed every three hours starting from 2 days before pump placement until 2 days after Ang pump placement.

[10] = test system: cleaved caspase-3, phospho-p38 MAP kinase, p38; assay: Western immunoblots of cardiac protein extracts after 4 weeks of Ang II; assay type: in vivo, mouse
Protocol: as §1
Western Immunoblots. Cardiac protein extracts were prepared by homogenization in lysis buffer containing protease and phosphatase inhibitors on ice (1.5 mM KCl, 50 mM Tris HCl, 0.125% Sodium deoxycholate, 0.375% Triton X 100, 0.15% NP40, 3 mM EDTA). The samples were sonicated and centrifuged at 10,000 g for 15 min in 4° C. The supernatant was collected and the concentration was determined using a BCA assay (Pierce Thermo Scientific, Rockford, IL). Total protein (25 μg) was separated on NuPAGE 4-12% Bis-Tris gel (Invitrogen) and transferred to 0.45 μm PVDF membrane (Millipore), and then blocked in 5% non-fat dry milk in Tris-buffer solution with 0.1% Tween-20 for 1 hour. Primary antibodies were incubated overnight, and secondary antibodies were incubated for 1 hour. The primary antibodies included: rabbit monoclonal anti-cleaved caspase-3 (Cell Signaling), mouse monoclonal anti-GAPDH (Millipore), rabbit polyclonal phospho-p38 MAP kinase (Cell Signaling), and mouse monoclonal anti-p38 (Santa Cruz Biotechnology). The enhanced chemiluminescence method (Thermo Scientific) was used for detection. Image Quant ver.2.0 was used to quantified the relative band density as a ratio to GAPDH (internal control). All samples were normalized to the same cardiac protein sample.

[11] = Gαq mice, SS-31 3 mg/kg/d for 4 weeks
[12] = 4 weeks Ang II (vs. saline) or Ang II + SS-31 (vs. Ang II)
[13] = SS-31 3 mg/kg/d with Ang II, 4 weeks
[14] = 4 weeks Ang II 1.1 mg/kg/d with or without SS-31 3 mg/kg/d
[15] = 4 weeks of Ang II, in the presence or absence of SS-31
[16] = Ang+SS-31 (3 mg/kg/d) vs. Ang, 4 weeks

D-Arg-2′,6′-Dmt-Lys-Phe-NH2 [SS-31]
effect on Ang II-induced Mitosox fluorescence / mitochondrial ROS [1]: reduced Ang II-induced mitosox fluorescence to the level similar to that of saline treated cardiomyocytes
cardiac enlargement (normalized heart weight) ([2]; Gαq mice at 16 weeks of age, SS-31 3 mg/kg/d for 4 weeks): substantially reduced
increase in lung weights (lung congestion) ([2]; Gαq mice at 16 weeks of age, SS-31 3 mg/kg/d for 4 weeks, borderline significance p=0.09): slightly attenuated
cardiac expression of Coll1a2 gene ([2]; Gαq mice, 4 weeks of SS-31 treatment): not significantly altered
Gαq overexpression-induced heart failure (phenotype overall) [2, 11]: partially rescued
cardiac mitochondrial protein carbonyls [2, 11]: significant reduction
ventricular fibrosis [2, 11]: not changed
myocardial performance (MPI) ([2]; Gαq mice, SS-31 3 mg/kg/d from 12 to 16 weeks of age): improved
systolic function (FS) ([2]; Gαq mice, SS-31 3 mg/kg/d from 12 to 16 weeks of age, vs. untreated Gαq): significantly ameliorated
Ea/Aa (diastolic function) ([2]; Gαq mice, SS-31 3 mg/kg/d from 12 to 16 weeks of age, borderline significance p=0.06): better preserved
LV chamber enlargement ([2]; Gαq mice, SS-31 3 mg/kg/d from 12 to 16 weeks of age, p=0.08): slightly reduced
effect on Ang II-induced ventricular fibrosis [3]: fully attenuated
expression of PGC-1α and downstream target genes TFAM, NRF-1 and NRF-2 [4, 12]: fully prevent the upregulation
effect on Ang II-induced ANP gene expression [4, 13]: almost completely protected
effect on Ang II-induced Coll1a2 gene expression [4, 13]: almost fully attenuated
cardiac NADPH oxidase activity [5]: not changed
ventricular mitochondrial protein carbonyl content [6]: significantly reduced
mu-opioid receptor agonist activity [7]: does not have mu-opioid receptor agonist activity
Ea/Aa [8, 14]: 1.17±0.11
LVMI [8, 14]: 4.21 ± 0.17 mg/g
heart weight (normalized to tibia length) ([8]; 4 weeks Ang II with or without SS-31, saline 5.3±0.18): 6.05±0.135 mg/mm
change in LV end diastolic diameter (LVEDD) [8, 15]: not significantly changed
change in fractional shortening (FS, systolic function) [8, 15]: not significantly changed
better preservation of Ea/Aa [8, 16]: 38%
reduction of LVMI [8, 16]: 33%
effect on blood pressure [9]: did not show any effect
phosphorylation of p38 MAPK [10, 12]: significantly and nearly fully attenuated
effect on activation of caspase-3 caused by Ang II [10, 13]: completely prevented

F[dR]FK-NH2 [SS-20]
mu-opioid receptor agonist activity [7]: does not have mu-opioid receptor agonist activity

Tyr-D-Arg-Phe-Lys-NH2 [SS-01]
mu-opioid receptor agonist activity [7]: has mu-opioid receptor agonist activity
